# Measured values reported in US9187486B2 (AMGEN INC., priority 2011, dated 2015).
# pIC50: −log10 of the molar value. Where two headings read alike, the source gives them in different places.
# What was measured:
# [1] = target: Pim-1 (Homo sapiens (Human), UniProt P11309); assay: Pim enzyme assay (HTRF, phosphorylation of biotinylated-BAD (S112) peptide), Pim-1; type: biochemical
# Procedure, shortened: (§1)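 Full-length human Pim-1 or Pim-2 with an N-terminal His6 tag, expressed in Sf9 or E. coli and purified as monomer. HTRF read-out: biotinylated BAD (S112) peptide phosphorylation detected with streptavidin-APC plus Eu-anti-phospho-BAD(S112) antibody, excitation 337 nm, emission 665 nm.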
# [2] = target: Pim-2 (Homo sapiens (Human), UniProt Q9P1W9); assay: Pim enzyme assay (HTRF, phosphorylation of biotinylated-BAD (S112) peptide), Pim-2; type: biochemical
# Pim-2, sequence (Q9P1W9 whole entry): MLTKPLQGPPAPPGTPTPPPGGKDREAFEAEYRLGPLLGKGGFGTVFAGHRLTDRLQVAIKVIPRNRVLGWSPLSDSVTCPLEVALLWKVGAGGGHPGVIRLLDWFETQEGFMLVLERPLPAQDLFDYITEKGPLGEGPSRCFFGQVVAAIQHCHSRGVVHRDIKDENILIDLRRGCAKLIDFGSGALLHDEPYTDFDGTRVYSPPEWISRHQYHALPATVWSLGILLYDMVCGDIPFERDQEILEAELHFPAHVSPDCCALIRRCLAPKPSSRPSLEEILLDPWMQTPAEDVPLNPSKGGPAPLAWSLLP
# Procedure, shortened: as §1
# [3] = system: KMS-12-BM myeloma cell line; assay: Pim cell assay: phospho-BAD (S112) and total BAD in KMS-12-BM cells; type: cell-based; conditions: 1 hour and 50 minutes incubation
# Experimental: The KMS-12-BM myeloma cell line was used to determine the in vitro cellular inhibition of Pim kinases. Disruption of Pim signaling by Pim inhibitors was determined by measuring the levels of phospho-BAD (S112) and total BAD. […] The cells were then incubated overnight at 37° C., 5% CO2. […] In addition to the 10-point dosing curve of the test compound, DMSO alone was run as a control. This dilution in DMSO was then diluted again into cell growth medium. Aliquots (11.1 uL) of the compound diluted in growth medium were then transferred to the appropriate wells of the 96-well plates containing cells to yield a final DMSO concentration of 0.3%. The cell plates were then incubated with compound for 1 hour and 50 minutes at 37° C., 5% CO2. After the 1 hour and 50 min incubation, the cell plates were spun at 1000 RPM for 10 minutes and the compound-containing medium was removed. […] The cell plates containing lysis buffer were then immediately stored at −70° C. These prepared lysates were then assayed for phospho-(S112) and total-BAD according to the manufacturer's protocol (Meso Scale Diagnostics, Cat # K15103D-3). The plates were read on the MSD Sector Imager 6000, and results were calculated according to the assay protocol: ((% Phosphoprotein=((2×Phospho signal)/(Phospho signal+Total signal))×100)).
# [4] = full length recombinant Pim-1, biotinylated-BAD (S112) peptide, HTRF, 96-well, read-out: Pim-1 IC50 IP
# [5] = full length recombinant Pim-2, biotinylated-BAD (S112) peptide, HTRF, 96-well, read-out: Pim-2 IC50 IP
# [6] = Homo sapiens, KMS-12-BM, read-out: KMS-12-BM IC50 IP
# [7] = full length recombinant Pim-1, biotinylated-BAD (S112) peptide, HTRF, read-out: Pim_1_IC50
# [8] = full length recombinant Pim-2, biotinylated-BAD (S112) peptide, HTRF, read-out: Pim2_IC50
# [9] = Homo sapiens, KMS-12-BM, read-out: KMS12_Cell_IC50
# [10] = tris(2,2,2-trifluoroacetate), read-out: KMS-12-BM IC50 IP
# Pim-1, sequence (P11309 whole entry): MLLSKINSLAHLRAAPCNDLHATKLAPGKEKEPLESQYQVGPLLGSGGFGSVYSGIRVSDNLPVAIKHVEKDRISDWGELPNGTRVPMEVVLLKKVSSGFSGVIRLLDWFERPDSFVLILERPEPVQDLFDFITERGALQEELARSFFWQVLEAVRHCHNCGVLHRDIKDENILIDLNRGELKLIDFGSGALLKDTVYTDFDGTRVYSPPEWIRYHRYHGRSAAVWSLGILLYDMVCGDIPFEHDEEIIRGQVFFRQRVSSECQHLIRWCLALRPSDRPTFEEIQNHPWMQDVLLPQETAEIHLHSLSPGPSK
Structure (SMILES),"pIC50 [1, 4]","pIC50 [2, 5]","pIC50 [3, 6]","pIC50 [3, 9]",other results
"O[C@@H]1CCN(c2ccncc2Nc2ncc3ccc(-c4c(F)cccc4F)nn23)C[C@H]1O (single isomer, unassigned) [Example 35, 1-(3-((2-(2,6-difluorophenyl)imidazo[1,5-b]pyridazin-7-yl)amino)-4-pyridinyl)-3,4-trans-piperidinediol]",8.57,8.06,6.18,–,–
"N[C@H]1CCCN(c2ccccc2Nc2ncc3ccc(-c4c(F)cccc4F)nn23)C1 [Example 73, (S)-N-(2-(3-aminopiperidin-1-yl)phenyl)-2-(2,6-difluorophenyl)imidazo[1,5-b]pyridazin-7-amine]",8.66,8.19,5.46,–,–
"C[C@@H]1C[C@H](N)CN(c2ccncc2Nc2ncc3ccc(-c4nccs4)nn23)C1 [Example 62, N-(4-((3S,5R)-3-amino-5-methylpiperidin-1-yl)pyridin-3-yl)-2-(thiazol-2-yl)imidazo[1,5-b]pyridazin-7-amine bis(2,2,2-trifluoroacetate)]",9.52,–,6.74,–,pIC50 ([2]; read-out: Pim-2 IC50 IP): 9.40
"N[C@H]1CCCN(c2ccncc2Nc2ncc3ccc(-c4ccccc4F)nn23)C1 [Example 15, N-(4-((3S)-3-amino-1-piperidinyl)-3-pyridinyl)-2-(2-fluorophenyl)imidazo[1,5-b]pyridazin-7-amine bis(2,2,2-trifluoroacetate)]",–,–,–,5.81,"pIC50 ([1]; read-out: Pim_1_IC50): 9.70; pIC50 [2, 8]: 8.70"
"Clc1ccccc1-c1ccc2cnc(Nc3cnccc3O[C@H]3CCCNC3)n2n1 [Example 16, 2-(2-chlorophenyl)-N-(4-((3S)-3-piperidinyloxy)-3-pyridinyl)imidazo[1,5-b]pyridazin-7-amine bis(2,2,2-trifluoroacetate)]",–,–,–,< 6.00,"pIC50 [1, 7]: 7.36; pIC50 [2, 8]: 6.53"
"C[C@@H]1CCN(c2ccncc2Nc2ncc3ccc(-c4c(F)cccc4F)nn23)C[C@H]1N (single isomer, unassigned) [Example 100, N-(4-((trans)-3-amino-4-methylpiperidin-1-yl)pyridin-3-yl)-2-(2,6-difluorophenyl)imidazo[1,5-b]pyridazin-7-amine tris(2,2,2-trifluoroacetate)]",–,–,–,–,"pIC50 ([1]; read-out: Pim-1 IC50 IP): > 10.00; pIC50 ([2]; read-out: Pim-2 IC50 IP): 9.70; pIC50 [3, 10]: 7.11"
"CN(C)C(=O)c1ccc(F)c(-c2ccc3cnc(Nc4cnccc4N4CCC[C@H](N)C4)n3n2)c1 [Example 89, (S)-3-(7-((4-(3-aminopiperidin-1-yl)pyridin-3-yl)amino)imidazo[1,5-b]pyridazin-2-yl)-4-fluoro-N,N-dimethylbenzamide tetra(2,2,2-trifluoroacetate)]",8.46,8.28,5.87,–,–
"N[C@H]1CCCN(c2ccncc2Nc2ncc3ccc(-c4c(F)cccc4F)nn23)C1 [Example 1, N-(4-((3S)-3-amino-1-piperidinyl)-3-pyridinyl)-2-(2,6-difluorophenyl)imidazo[1,5-b]pyridazin-7-amine tris(2,2,2-trifluoroacetate)]",–,–,–,6.37,"pIC50 [1, 7]: 10.10; pIC50 ([2]; read-out: Pim2_IC50): 9.30"
"C[C@@H]1CCN(c2ccncc2Nc2ncc3ccc(-c4c(F)cccc4F)nn23)C[C@H]1N (single isomer, unassigned) [Example 101, N-(4-((trans)-3-amino-4-methylpiperidin-1-yl)pyridin-3-yl)-2-(2,6-difluorophenyl)imidazo[1,5-b]pyridazin-7-amine tris(2,2,2-trifluoroacetate)]",8.12,7.49,–,–,"pIC50 [3, 10]: 5.16"
"C[C@H]1CCN(c2ccncc2Nc2ncc3ccc(-c4c(F)cccc4F)nn23)C[C@H]1N (single isomer, unassigned) [Example 99, N-(4-((cis)-3-amino-4-methylpiperidin-1-yl)pyridin-3-yl)-2-(2,6-difluorophenyl)imidazo[1,5-b]pyridazin-7-amine bis(2,2,2-trifluoroacetate)]",9.52,8.80,–,–,"pIC50 ([3]; bis(2,2,2-trifluoroacetate), read-out: KMS-12-BM IC50 IP): 5.57"

# The next lines start with results.
"pIC50 [1, 4]","pIC50 [2, 5]","pIC50 [3, 6]","pIC50 [3, 9]",Structure (SMILES),other results
9.40,8.85,5.79,–,"N[C@H]1C[C@H](C(F)(F)F)CN(c2ccncc2Nc2ncc3ccc(-c4c(F)cccc4F)nn23)C1 (racemic) [Example 61, rac-N-(4-((trans)-3-amino-5-(trifluoromethyl)piperidin-1-yl)pyridin-3-yl)-2-(2,6-difluorophenyl)imidazo[1,5-b]pyridazin-7-amine bis(2,2,2-trifluoroacetate)]",–
–,–,–,7.40,"C[C@H]1CN(c2ccncc2Nc2ncc3ccc(-c4c(F)cccc4F)nn23)C[C@@H](N)[C@@H]1O [Example 20, (3R,4R,5S)-3-amino-1-(3-((2-(2,6-difluorophenyl)imidazo[1,5-b]pyridazin-7-yl)amino)-4-pyridinyl)-5-methyl-4-piperidinol]","pIC50 [1, 7]: 10.40; pIC50 [2, 8]: 10.10"
9.52,8.89,6.94,–,"C[C@H]1CN(c2ccncc2Nc2ncc3ccc(-c4ncccc4F)nn23)C[C@@H](N)[C@@H]1O [Example 66, (3R,4R,5S)-3-amino-1-(3-((2-(3-fluoropyridin-2-yl)imidazo[1,5-b]pyridazin-7-yl)amino)pyridin-4-yl)-5-methylpiperidin-4-ol]",–
9.05,8.59,6.21,–,"N[C@H]1CCCN(c2ccncc2Nc2ncc3ccc(-c4ncccc4Cl)nn23)C1 [Example 78, (S)-N-(4-(3-aminopiperidin-1-yl)pyridin-3-yl)-2-(3-chloropyridin-2-yl)imidazo[1,5-b]pyridazin-7-amine]",–
–,–,–,5.57,"N[C@H]1CCCN(c2ccncc2Nc2ncc3ccc(-c4ccccc4Cl)nn23)C1 [Example 4, N-(4-((3S)-3-amino-1-piperidinyl)-3-pyridinyl)-2-(2-chlorophenyl)imidazo[1,5-b]pyridazin-7-amine]","pIC50 [1, 7]: 9.05; pIC50 [2, 8]: 8.52"
9.10,8.49,6.01,–,"N[C@H]1C[C@@H](F)CN(c2ccncc2Nc2ncc3ccc(-c4c(F)cccc4F)nn23)C1 [Example 48, N-(4-((3S,5R)-3-amino-5-fluoropiperidin-1-yl)pyridin-3-yl)-2-(2,6-difluorophenyl)imidazo[1,5-b]pyridazin-7-amine tris(2,2,2-trifluoroacetate)]",–
–,–,–,5.30,"N[C@H]1CCCN(c2ccncc2Nc2ncc3ccc(-c4ccc(Cl)cc4Cl)nn23)C1 [Example 11, N-(4-((3S)-3-amino-1-piperidinyl)-3-pyridinyl)-2-(2,4-dichlorophenyl)imidazo[1,5-b]pyridazin-7-amine]","pIC50 [1, 7]: 8.70; pIC50 [2, 8]: 7.96"
9.70,9.30,6.88,–,C[C@@H]1C[C@H](N)CN(c2ccncc2Nc2ncc3ccc(-c4ncccc4Cl)nn23)C1 [Example 79],–
8.80,7.97,5.66,–,"C[C@@H]1C[C@H](N)CN(c2ccncc2Nc2nnc3ccc(-c4ncccc4F)nn23)C1 [Example 92, N-(4-((3S,5R)-3-amino-5-methyl-1-piperidinyl)-3-pyridinyl)-6-(3-fluoro-2-pyridinyl)[1,2,4]triazolo[4,3-b]pyridazin-3-amine]",–
10.00,10.00,7.06,–,"C[C@@H]1C[C@H](N)CN(c2ccncc2Nc2ncc3ccc(-c4cc(C(=O)NC5CC5)ccc4F)nn23)C1 [Example 72, 3-(7-((4-((3S,5R)-3-amino-5-methyl-1-piperidinyl)-3-pyridinyl)amino)imidazo[1,5-b]pyridazin-2-yl)-N-cyclopropyl-4-fluorobenzamide]",–
> 10.00,10.00,–,–,"C[C@@H]1C[C@H](N)CN(c2ccncc2Nc2ncc3ccc(-c4ccccc4F)nn23)C1 (single isomer, unassigned) [Example 46, N-(4-((cis)-3-amino-5-methylpiperidin-1-yl)pyridin-3-yl)-2-(2-fluorophenyl)imidazo[1,5-b]pyridazin-7-amine tris(2,2,2-trifluoroacetate)]","pIC50 [3, 10]: 7.28"
–,–,–,5.75,"N[C@H]1CCCN(c2ccncc2Nc2ncc3ccc(-c4ccc(F)cc4F)nn23)C1 [Example 12, N-(4-((3S)-3-amino-1-piperidinyl)-3-pyridinyl)-2-(2,4-difluorophenyl)imidazo[1,5-b]pyridazin-7-amine]","pIC50 [1, 7]: 9.40; pIC50 [2, 8]: 8.52"
